Source: patent publication US11090349B2, “Plant extract obtained from Morus plant leaves, compositions containing same, method of extraction and uses thereof” (Botanic Century (Beijing) Co. Ltd., priority 2009, dated 2021)

Tests used:
B16 melanoma cells [1] = assay: Melanin content in B16 melanoma cells; assay type: cell-based; conditions: different concentrations
Experimental: The aim was to investigate the impact of the test samples on melanin content of melanoma cell line B16. […] The method was as set out below: • 1. Harvest the melanoma B16 cells at Log phase and adjust the cell suspension to an appropriate concentration, divide into 24 well plates and allow the cells to adhere to the walls. • 2. […] Add 250 μl WIP lysis buffer and allow to lyse in an ice bath, vortex mixing once every 5 min for 4-5 times. • 4. Centrifuge for 10 min at 12000 rpm at 4° C. Discard the supernatant and dissolve the precipitate with 400 μl 1N NaOH and keep it in a 80° C. water bath for 1 hour. • 5. Use a microplate reader to measure OD value at 405 nm, and calculate the relative content. Results and discussion: The B16 melanoma cells were seeded at a density of 4×10^4 cell per well of 24-well culture plates, incubated at 37° C. under 5% CO2 atmosphere for 24 h. […] The cells were washed with phosphate-buffered saline, collected in centrifuge tube. After centrifugation, cell pellets were disrupted in WIP lysis buffer containing phenylmethylsulfonyl fluoride (PMSF) on ice for 30 min. The solution was centrifuged for 10 min at 12000 g at 4° C., the pellets were dissolved in 1N NaOH by boiling for 1 h at 70° C. The melanin content was assayed at 405 nm in a spectrophotometer.

B16 melanoma cells [2] = assay: Cell viability, MTT assay; assay type: cell-based; conditions: for growth inhibition of B16 melanoma cells (MTT): below the concentration of 200 ppm
Experimental: Cell survival was measured using the MTT assay, which is based on the conversion of 3-(4,5-dimethylthiazol-2-yl)-2,5-diphenyltetrazolium bromide to MTT-formazan crystal by mitochondrial enzyme in viable cells. MTT was freshly prepared at 2 mg/ml in phosphate-buffered saline (PBS). […] Aliquots of 20 μl of MTT stock solution were added to the well at different time points throughout the experiment, and the plate was incubated at 37° C. for 4 h in a humidified 5% CO2 incubator. After 4 h, the formazan crystals of these cells were solubilized in 100 μl DMSO by gentle shaking. After 10 min, the amount of formazan was quantified spectrophotometrically using an ELISA plate reader at 540 nm.

tyrosinase [3] = target: T1, tyrosinase (Mus musculus, UniProt P11344); assay: Direct effect on tyrosinase catalytic activity in B16 cell extract; assay type: biochemical; conditions: incubated 1 hour at 37° C., L-dopa
T1 construct: supernatant (cell extract) containing the cellular components being retained for assay purposes; endogenous in cells; host or cells: B16 melanoma cells
T1 sequence (P11344 19-533): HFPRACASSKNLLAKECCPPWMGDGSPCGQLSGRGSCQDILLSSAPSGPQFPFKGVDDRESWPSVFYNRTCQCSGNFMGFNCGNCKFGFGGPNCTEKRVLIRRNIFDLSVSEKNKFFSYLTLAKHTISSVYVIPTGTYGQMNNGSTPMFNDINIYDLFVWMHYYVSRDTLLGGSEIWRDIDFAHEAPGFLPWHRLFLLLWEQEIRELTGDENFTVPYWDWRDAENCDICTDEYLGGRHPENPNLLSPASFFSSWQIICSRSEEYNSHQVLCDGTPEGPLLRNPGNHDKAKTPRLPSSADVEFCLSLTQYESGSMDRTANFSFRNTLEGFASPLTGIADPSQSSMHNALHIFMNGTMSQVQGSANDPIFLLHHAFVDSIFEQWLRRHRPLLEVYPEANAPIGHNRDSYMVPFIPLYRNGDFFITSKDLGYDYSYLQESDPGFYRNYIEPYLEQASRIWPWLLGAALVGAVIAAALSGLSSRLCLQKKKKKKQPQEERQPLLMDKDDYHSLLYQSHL
Experimental: (§1) The aim was to investigate the impact and mechanisms of action of the test samples on the TYR activity in melanoma cell line B16.
(§2) B16 melanoma cells were washed with phosphate-buffered saline and collected in a centrifuge tube. After centrifugation, WIP-lysis buffer containing phenyl-methylsulfonyl fluoride (PMSF) was added to the cell pellet to lyse the cells and the solution was left to stand on ice for 30 minutes. The solution was subsequently centrifuged for 10 min, at 12000 g, at 4° C., with the supernatant (cell extract) containing the cellular components being retained for assay purposes.
The plate was incubated at 37° C. for 1 hour, and then 80 μl L-dopa was added to each well. The absorbance (492 nm) of each well was recorded at 5 minute intervals for 30 minutes at 37° C. using a microplate reader.

tyrosinase [4] = assay: Indirect effect on tyrosinase activity, B16 cells cultured with sample for three days; assay type: cell-based; conditions: B16 cells incubated three days with test compound before extraction
Experimental: as §1, §2

Wistar rats = assay: Blood glucose of Wistar rats after starch meal; assay type: in vivo, Wistar rat; conditions: positive control 25 mg/kg
Experimental: The reagents and apparatus are set out below: • (1) Mulberry leaf extract of Example 1 • (2) Saline • (3) Miglitol standard reference chemical • (4) 64 Wistar rats • (5) Johnson's One Touch Ultra blood glucose meter and Code 9 blood glucose test strips The method used was as set out below:
Animals received Morus extract via intraperitoneal injection (15 mg/kg or 30 mg/kg) or intragastrically (25 mg/kg or 50 mg/kg). Miglitol (Glyset®) (25 mg/kg), an α-glucosidase inhibitor approved for type-2 diabetes was used as a positive control. Fasted blood-sugar levels were recorded as a baseline, and blood sugar levels were measured at time intervals 05.hr, 1 hr and 2 hrs after receiving a starch meal. The animals were dosed with Morus extract prior to receiving the starch meal.

Row | SMILES | content of melanin compared to the control (B16 melanoma cells [1]) | concentration above which viability of the cell decreased (B16 melanoma cells [2]; B16 melanoma cell) | growth inhibition of B16 melanoma cells (MTT) (B16 melanoma cells [2]) | direct effect on tyrosinase activity (tyrosinase [3]) | indirect effect on tyrosinase activity (tyrosinase [4]) | Blood glucose 0.5 h after giving starch (Wistar rats) [mmol/L] | Blood glucose 1 h after giving starch (Wistar rats) [mmol/L] | Blood glucose 2 h after giving starch (Wistar rats) [mmol/L] | Fasted Glucose (Wistar rats; baseline) [mmol/L]
1 | O=C1O[C@H]([C@@H](O)CO)C([O-])=C1OP(=O)([O-])[O-].O=C1O[C@H]([C@@H](O)CO)C([O-])=C1OP(=O)([O-])[O-].[Mg+2].[Mg+2].[Mg+2] [VC-PMG, magnesium L-ascorbyl-2-phosphate] | decreased significantly in a dose-dependent manner | over 200 ppm | no growth inhibition | – | – | – | – | – | –
2 | OCC1NCC(O)C(O)C1O (stereo not shown) [DNJ, 1-deoxynojirimycin] | decreased significantly in a dose-dependent manner | – | no growth inhibition | no effect on tyrosinase activity | dose-dependent decrease in tyrosinase activity | – | – | – | –
3 | OC[C@H]1O[C@@H](Oc2ccc(O)cc2)[C@H](O)[C@@H](O)[C@@H]1O [arbutin] | – | – | – | reduced the activity of tyrosinase in a dose-dependent manner | no effect on tyrosinase activity | – | – | – | –
4 | OCCN1C[C@H](O)[C@@H](O)[C@H](O)[C@H]1CO [Miglitol] | – | – | – | – | – | 2.27 ± 0.71 | 2.98 ± 0.52 | 2.69 ± 0.35 | 3.04 ± 0.74
